Experimental data: patent publication US8871753B2, “Macrocyclic compounds and their use as kinase inhibitors” (Incyte Corporation, priority 2008, dated 2014)
pIC50: −log10 of the molar value. Where a name gives a salt, the structure may show the parent alone.

Assays:
Type in all cases: biochemical
[1] = target: T1, human JAK3 (a.a. 781-1124) (Homo sapiens, UniProt P52333); assay: In vitro JAK kinase assay (HTRF, phosphorylation of a biotinylated peptide), JAK3; details: Table B1
T1 construct: JAK3 (a.a. 781-1124); His tag (N); made in house; host or cells: insect cells (baculovirus)
In short: (§1)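 Phosphorylation of a biotinylated peptide by the JAK kinase domain, detected by HTRF with Eu-Py20 and SA-APC. ATP was 90 μM for JAK1, 30 μM for JAK2 and 3 μM for JAK3. Reactions ran 1 h at room temperature and were stopped with EDTA, followed by 40 min antibody binding.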

[2] = target: T2, human JAK2 (a.a. 828-1132) (Homo sapiens, UniProt O60674); assay: In vitro JAK kinase assay (HTRF, phosphorylation of a biotinylated peptide), JAK2; details: Table B1
T2 construct: JAK2 (a.a. 828-1132); His tag (N); made in house; host or cells: insect cells (baculovirus)
In short: as §1

[3] = target: T3, Recombinant Human Anaplastic Lymphoma Kinase (Homo sapiens, UniProt Q9UM73); assay: ALK HTRF kinase assay; details: for pIC50: Table B1, cells without percent sign; for ALK % of inhibition at a concentration of 500 nM or 1 mM: compound at a concentration of 500 nM or 1 mM (not specified), cells shown as percentage
T3 construct: purchased Invitrogen, Carlsbad, Calif
In short: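 Biotinylated peptide substrate, recombinant human ALK; detection via europium-chelate antibody to phosphotyrosine paired with streptavidin-APC. Potency expressed as IC50 from four-parameter curve fitting.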

[4] = target: T4, human JAK1 (a.a. 837-1142) (Homo sapiens, UniProt P23458); assay: In vitro JAK kinase assay (HTRF, phosphorylation of a biotinylated peptide), JAK1; details: Table B1; read-out: JAK1 IC50
T4 construct: human JAK1 (a.a. 837-1142); His tag (N); made in house; host or cells: insect cells (baculovirus)
In short: as §1

TYK2 = TYK2 (Homo sapiens, UniProt P29597); assay: TYK2 kinase inhibition (Table A1); details: Table B1
Sequence of TYK2 (P29597 whole entry): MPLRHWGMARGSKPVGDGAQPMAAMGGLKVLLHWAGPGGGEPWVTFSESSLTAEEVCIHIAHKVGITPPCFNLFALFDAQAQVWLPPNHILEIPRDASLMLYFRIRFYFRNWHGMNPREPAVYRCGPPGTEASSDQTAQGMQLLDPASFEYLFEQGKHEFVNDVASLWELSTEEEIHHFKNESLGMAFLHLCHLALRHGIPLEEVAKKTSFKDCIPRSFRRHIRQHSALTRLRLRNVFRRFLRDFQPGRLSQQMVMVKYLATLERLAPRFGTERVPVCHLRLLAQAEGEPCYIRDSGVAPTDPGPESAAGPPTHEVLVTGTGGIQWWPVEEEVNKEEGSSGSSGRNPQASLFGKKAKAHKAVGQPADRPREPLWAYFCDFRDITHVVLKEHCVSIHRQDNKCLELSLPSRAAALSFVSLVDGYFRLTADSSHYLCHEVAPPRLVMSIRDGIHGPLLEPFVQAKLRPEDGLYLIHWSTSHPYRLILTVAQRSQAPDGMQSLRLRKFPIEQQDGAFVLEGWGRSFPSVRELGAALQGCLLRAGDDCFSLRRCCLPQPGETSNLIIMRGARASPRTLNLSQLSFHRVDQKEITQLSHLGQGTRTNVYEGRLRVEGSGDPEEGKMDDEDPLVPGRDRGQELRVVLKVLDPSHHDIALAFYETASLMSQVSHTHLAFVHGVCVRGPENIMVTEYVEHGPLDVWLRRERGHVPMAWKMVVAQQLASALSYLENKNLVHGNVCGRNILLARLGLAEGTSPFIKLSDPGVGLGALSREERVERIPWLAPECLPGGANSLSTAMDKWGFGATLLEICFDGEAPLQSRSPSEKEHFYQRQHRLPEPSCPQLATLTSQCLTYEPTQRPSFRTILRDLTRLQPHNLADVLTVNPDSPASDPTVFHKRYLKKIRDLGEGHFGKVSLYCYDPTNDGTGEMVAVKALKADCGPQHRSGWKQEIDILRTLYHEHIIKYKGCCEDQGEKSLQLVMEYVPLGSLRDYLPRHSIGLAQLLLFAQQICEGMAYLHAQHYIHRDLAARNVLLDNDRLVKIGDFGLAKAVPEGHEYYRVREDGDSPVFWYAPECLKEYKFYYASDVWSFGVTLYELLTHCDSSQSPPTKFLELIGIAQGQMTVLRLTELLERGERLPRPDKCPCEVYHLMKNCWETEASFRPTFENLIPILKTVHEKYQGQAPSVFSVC

T2 sequence (O60674 828-1132): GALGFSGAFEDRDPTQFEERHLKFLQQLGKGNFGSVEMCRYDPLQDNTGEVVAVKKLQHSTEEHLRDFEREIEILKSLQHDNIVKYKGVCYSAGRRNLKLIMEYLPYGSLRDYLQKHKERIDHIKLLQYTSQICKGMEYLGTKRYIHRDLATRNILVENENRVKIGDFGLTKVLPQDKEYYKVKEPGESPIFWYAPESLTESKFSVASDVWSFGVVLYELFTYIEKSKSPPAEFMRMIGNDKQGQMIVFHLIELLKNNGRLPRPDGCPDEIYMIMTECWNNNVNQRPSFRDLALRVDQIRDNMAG
T3 sequence (Q9UM73 19-1620): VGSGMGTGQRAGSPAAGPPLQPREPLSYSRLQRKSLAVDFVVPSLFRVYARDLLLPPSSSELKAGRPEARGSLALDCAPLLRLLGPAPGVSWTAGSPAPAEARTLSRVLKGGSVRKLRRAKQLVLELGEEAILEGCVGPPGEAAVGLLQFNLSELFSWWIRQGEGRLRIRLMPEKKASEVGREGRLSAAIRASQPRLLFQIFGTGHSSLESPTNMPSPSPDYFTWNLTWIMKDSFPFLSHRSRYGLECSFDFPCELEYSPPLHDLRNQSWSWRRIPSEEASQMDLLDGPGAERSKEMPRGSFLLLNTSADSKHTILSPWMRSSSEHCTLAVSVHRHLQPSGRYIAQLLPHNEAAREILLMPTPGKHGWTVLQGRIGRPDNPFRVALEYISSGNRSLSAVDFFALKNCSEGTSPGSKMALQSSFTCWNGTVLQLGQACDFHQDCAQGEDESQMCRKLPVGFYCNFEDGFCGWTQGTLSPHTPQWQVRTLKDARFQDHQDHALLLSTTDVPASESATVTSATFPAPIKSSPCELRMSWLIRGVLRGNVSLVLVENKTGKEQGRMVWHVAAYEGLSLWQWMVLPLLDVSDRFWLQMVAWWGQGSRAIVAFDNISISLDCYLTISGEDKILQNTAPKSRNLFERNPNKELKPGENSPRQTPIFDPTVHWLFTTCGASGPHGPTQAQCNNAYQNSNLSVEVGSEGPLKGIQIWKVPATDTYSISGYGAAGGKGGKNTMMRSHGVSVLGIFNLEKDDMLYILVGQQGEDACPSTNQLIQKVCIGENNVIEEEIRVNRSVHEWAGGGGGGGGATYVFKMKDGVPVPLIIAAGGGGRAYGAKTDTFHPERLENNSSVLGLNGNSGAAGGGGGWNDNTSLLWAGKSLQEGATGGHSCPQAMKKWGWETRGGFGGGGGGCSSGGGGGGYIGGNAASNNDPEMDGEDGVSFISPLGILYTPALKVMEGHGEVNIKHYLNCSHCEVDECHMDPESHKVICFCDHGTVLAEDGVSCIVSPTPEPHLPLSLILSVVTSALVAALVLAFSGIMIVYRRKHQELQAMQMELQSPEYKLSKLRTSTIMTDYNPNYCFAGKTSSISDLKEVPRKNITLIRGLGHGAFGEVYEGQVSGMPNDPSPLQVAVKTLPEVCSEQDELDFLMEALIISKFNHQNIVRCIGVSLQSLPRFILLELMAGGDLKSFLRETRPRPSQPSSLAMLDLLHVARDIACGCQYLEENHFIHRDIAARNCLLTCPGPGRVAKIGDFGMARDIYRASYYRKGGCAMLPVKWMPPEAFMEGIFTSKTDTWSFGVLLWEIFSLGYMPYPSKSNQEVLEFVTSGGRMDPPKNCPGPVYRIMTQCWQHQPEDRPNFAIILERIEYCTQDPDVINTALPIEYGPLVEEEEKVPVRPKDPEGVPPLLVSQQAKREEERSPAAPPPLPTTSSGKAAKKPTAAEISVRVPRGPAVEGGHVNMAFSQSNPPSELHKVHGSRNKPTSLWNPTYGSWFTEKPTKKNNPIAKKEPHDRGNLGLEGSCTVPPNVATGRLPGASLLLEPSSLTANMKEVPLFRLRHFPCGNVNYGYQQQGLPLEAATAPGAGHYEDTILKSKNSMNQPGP
T4 sequence (P23458 849-1154): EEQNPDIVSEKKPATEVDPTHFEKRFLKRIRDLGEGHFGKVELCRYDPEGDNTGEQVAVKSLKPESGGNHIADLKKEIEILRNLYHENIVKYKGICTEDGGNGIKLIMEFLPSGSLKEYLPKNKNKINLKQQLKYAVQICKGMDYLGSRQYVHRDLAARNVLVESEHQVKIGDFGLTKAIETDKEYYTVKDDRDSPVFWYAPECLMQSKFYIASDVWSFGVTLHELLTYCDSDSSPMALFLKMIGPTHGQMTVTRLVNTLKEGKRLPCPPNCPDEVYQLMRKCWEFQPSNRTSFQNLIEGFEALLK
T1 sequence (P52333 781-1124): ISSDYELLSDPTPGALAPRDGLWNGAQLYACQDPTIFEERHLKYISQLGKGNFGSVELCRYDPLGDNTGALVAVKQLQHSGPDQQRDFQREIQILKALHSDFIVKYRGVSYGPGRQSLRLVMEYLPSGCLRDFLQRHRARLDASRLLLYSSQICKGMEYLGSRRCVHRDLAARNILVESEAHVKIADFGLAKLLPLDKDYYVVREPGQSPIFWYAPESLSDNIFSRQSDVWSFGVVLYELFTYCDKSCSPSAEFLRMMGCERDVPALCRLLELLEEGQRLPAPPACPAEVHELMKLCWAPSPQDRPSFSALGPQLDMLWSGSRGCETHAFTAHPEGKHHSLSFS

pIC50 [1] | pIC50 [2] | pIC50 [3] | pIC50 [4] | pIC50 (TYK2) | ALK % of inhibition at a concentration of 500 nM or 1 mM [3] | SMILES
8.01 | 8.89 | 6.14 | 9.41 | 8.38 | – | O=C(Nc1ccccc1Cl)Nc1ccc2cc1CCc1cccc(c1)Nc1ncc(Cl)c(n1)N2 [Example B84, N-(2-Chlorophenyl)-N′-[6-chloro-2,4,8,22-tetraazatetracyclo[14.3.1.1(3,7).1(9,13)]docosa-1(20),3(22),4,6,9(21),10,12,16,18-nonaen-12-yl]urea trifluoroacetate]
7.41 | 8.57 | < 6.00 | 8.85 | 8.66 | – | O=C(Nc1cccc(Cl)c1)Nc1ccc2cc1CCc1cccc(c1)Nc1ncc(Cl)c(n1)N2 [Example B85, N-(3-Chlorophenyl)-N′-[6-chloro-2,4,8,22-tetraazatetracyclo[14.3.1.1(3,7).1(9,13)]docosa-1(20),3(22),4,6,9(21),10,12,16,18-nonaen-12-yl]urea trifluoroacetate]
7.57 | 8.59 | < 6.00 | 8.57 | 8.19 | – | O=C(Nc1ccc(Cl)cc1)Nc1ccc2cc1CCc1cccc(c1)Nc1ncc(Cl)c(n1)N2 [Example B86, N-(4-Chlorophenyl)-N′-[6-chloro-2,4,8,22-tetraazatetracyclo[14.3.1.1(3,7).1(9,13)]docosa-1(20),3(22),4,6,9(21),10,12,16,18-nonaen-12-yl]urea trifluoroacetate]
7.38 | 8.35 | < 6.00 | 8.28 | 7.80 | – | CC(C)(C)NC(=O)Nc1ccc2cc1CCc1cccc(c1)Nc1ncc(Cl)c(n1)N2 [Example B87, N-(tert-Butyl)-N′-[6-chloro-2,4,8,22-tetraazatetracyclo[14.3.1.1(3,7).1(9,13)]docosa-1(20),3(22),4,6,9(21),10,12,16,18-nonaen-12-yl]urea trifluoroacetate]
7.54 | 8.77 | 6.03 | 9.13 | 8.20 | – | O=C(Nc1ccc2cc1CCc1cccc(c1)Nc1ncc(Cl)c(n1)N2)NC1CCCC1 [Example B88, N-[6-Chloro-2,4,8,22-tetraazatetracyclo[14.3.1.1(3,7).1(9,13)]docosa-1(20), 3(22),4,6,9(21),10,12,16,18-nonaen-12-yl]-N′-cyclopentylurea trifluoroacetate]
7.40 | 8.54 | < 6.00 | 8.62 | 7.80 | – | O=C(Nc1ccsc1)Nc1ccc2cc1CCc1cccc(c1)Nc1ncc(Cl)c(n1)N2 [Example B89, N-[6-Chloro-2,4,8,22-tetraazatetracyclo[14.3.1.1(3,7).1(9,13)]docosa-1(20),3(22),4,6,9(21),10,12,16,18-nonaen-12-yl]-N′-3-thienylurea trifluoroacetate]
7.14 | 8.11 | < 6.00 | 8.28 | 7.70 | – | Cc1cccc(NC(=O)Nc2ccc3cc2CCc2cccc(c2)Nc2ncc(Cl)c(n2)N3)c1 [Example B90, N-[6-Chloro-2,4,8,22-tetraazatetracyclo[14.3.1.1(3,7).1(9,13)]docosa-1(20), 3(22),4,6,9(21),10,12,16,18-nonaen-12-yl]-N′-(3-methylphenyl)urea trifluoroacetate]
7.55 | 8.57 | < 6.00 | 8.68 | 7.89 | – | Cc1ccccc1NC(=O)Nc1ccc2cc1CCc1cccc(c1)Nc1ncc(Cl)c(n1)N2 [Example B91, N-[6-Chloro-2,4,8,22-tetraazatetracyclo[14.3.1.1(3,7).1(9,13)]docosa-1(20), 3(22),4,6,9(21),10,12,16,18-nonaen-12-yl]-N′-(2-methylphenyl)urea trifluoroacetate]
7.21 | 8.28 | < 6.00 | 8.40 | 8.01 | – | Cc1ccc(NC(=O)Nc2ccc3cc2CCc2cccc(c2)Nc2ncc(Cl)c(n2)N3)cc1 [Example B92, N-[6-Chloro-2,4,8,22-tetraazatetracyclo[14.3.1.1(3,7).1(9,13)]docosa-1(20),3(22),4,6,9(21),10,12,16,18-nonaen-12-yl]-N′-(4-methylphenyl)urea trifluoroacetate]
7.37 | 8.47 | < 6.00 | 8.59 | 7.92 | – | O=C(NCc1ccccc1)Nc1ccc2cc1CCc1cccc(c1)Nc1ncc(Cl)c(n1)N2 [Example B93, N-benzyl-N′-[6-chloro-2,4,8,22-tetraazatetracyclo[14.3.1.1(3,7).1(9,13)]docosa-1(20),3(22),4,6,9(21),10,12,16,18-nonaen-12-yl]urea trifluoroacetate]
7.29 | 8.42 | < 6.00 | 8.51 | 7.89 | – | Cc1noc(C)c1NC(=O)Nc1ccc2cc1CCc1cccc(c1)Nc1ncc(Cl)c(n1)N2 [Example B94, N-[6-Chloro-2,4,8,22-tetraazatetracyclo[14.3.1.1(3,7).1(9,13)]docosa-1(20), 3(22),4,6,9(21),10,12,16,18-nonaen-12-yl]-N′-(3,5-dimethylisoxazol-4-yl)urea trifluoroacetate]
7.17 | 8.39 | < 6.00 | 8.68 | 8.11 | – | N#Cc1cccc(NC(=O)Nc2ccc3cc2CCc2cccc(c2)Nc2ncc(Cl)c(n2)N3)c1 [Example B95, N-[6-Chloro-2,4,8,22-tetraazatetracyclo[14.3.1.1(3,7).1(9,13)]docosa-1(20), 3(22),4,6,9(21),10,12,16,18-nonaen-12-yl]-N′-(3-cyanophenyl)urea trifluoroacetate]
7.35 | 8.22 | < 6.00 | 9.00 | 7.92 | – | N#Cc1ccc(NC(=O)Nc2ccc3cc2CCc2cccc(c2)Nc2ncc(Cl)c(n2)N3)cc1 [Example B96, N-[6-Chloro-2,4,8,22-tetraazatetracyclo[14.3.1.1(3,7).1(9,13)]docosa-1(20), 3(22),4,6,9(21),10,12,16,18-nonaen-12-yl]-N′-(4-cyanophenyl)urea trifluoroacetate]
7.46 | 8.05 | – | 8.41 | 7.80 | 40% | CCc1ccccc1NC(=O)Nc1ccc2cc1CCc1cccc(c1)Nc1ncc(Cl)c(n1)N2 [Example B97, N-[6-Chloro-2,4,8,22-tetraazatetracyclo[14.3.1.1(3,7).1(9,13)]docosa-1(20), 3(22),4,6,9(21),10,12,16,18-nonaen-12-yl]-N′-(2-ethylphenyl)urea trifluoroacetate]
7.04 | 7.59 | – | 7.89 | 7.42 | 41% | CCc1ccc(NC(=O)Nc2ccc3cc2CCc2cccc(c2)Nc2ncc(Cl)c(n2)N3)cc1 [Example B98, N-[6-Chloro-2,4,8,22-tetraazatetracyclo[14.3.1.1(3,7).1(9,13)]docosa-1(20), 3(22),4,6,9(21),10,12,16,18-nonaen-12-yl]-N′-(4-ethylphenyl)urea trifluoroacetate]
6.82 | 7.70 | – | 8.15 | 7.48 | 37% | CCc1cccc(NC(=O)Nc2ccc3cc2CCc2cccc(c2)Nc2ncc(Cl)c(n2)N3)c1 [Example B99, N-[6-Chloro-2,4,8,22-tetraazatetracyclo[14.3.1.1(3,7).1(9,13)]docosa-1(20), 3(22),4,6,9(21),10,12,16,18-nonaen-12-yl]-N′-(3-ethylphenyl)urea trifluoroacetate]
7.40 | 8.33 | – | 9.04 | 8.06 | 44% | COc1cccc(NC(=O)Nc2ccc3cc2CCc2cccc(c2)Nc2ncc(Cl)c(n2)N3)c1 [Example B100, N-[6-Chloro-2,4,8,22-tetraazatetracyclo[14.3.1.1(3,7).1(9,13)]docosa-1(20), 3(22),4,6,9(21),10,12,16,18-nonaen-12-yl]-N′-(3-methoxyphenyl)urea trifluoroacetate]
7.59 | 8.00 | – | 8.35 | 7.72 | 39% | COc1ccc(NC(=O)Nc2ccc3cc2CCc2cccc(c2)Nc2ncc(Cl)c(n2)N3)cc1 [Example B101, N-[6-Chloro-2,4,8,22-tetraazatetracyclo[14.3.1.1(3,7).1(9,13)]docosa-1(20), 3(22),4,6,9(21),10,12,16,18-nonaen-12-yl]-N′-(4-methoxyphenyl)urea trifluoroacetate]
7.48 | 8.42 | – | 8.70 | 8.05 | 54% | COc1ccccc1NC(=O)Nc1ccc2cc1CCc1cccc(c1)Nc1ncc(Cl)c(n1)N2 [Example B102, N-[6-Chloro-2,4,8,22-tetraazatetracyclo[14.3.1.1(3,7).1(9,13)]docosa-1(20), 3(22),4,6,9(21),10,12,16,18-nonaen-12-yl]-N′-(2-methoxyphenyl)urea trifluoroacetate]
